{"source": "patent US8580852B2", "about": "“2-oxamide inhibitors of phospholipase A2 activity and cellular arachidonate release based on dipeptides and pseudopeptides” (The Regents of the University of California, priority 2009, dated 2013)", "origin": "cited, not measured here", "key": {"[1]": {"biological_target": "T1, GVIA iPLA2 (Homo sapiens, UniProt O60733)", "T1 sequence (O60733 1-806)": "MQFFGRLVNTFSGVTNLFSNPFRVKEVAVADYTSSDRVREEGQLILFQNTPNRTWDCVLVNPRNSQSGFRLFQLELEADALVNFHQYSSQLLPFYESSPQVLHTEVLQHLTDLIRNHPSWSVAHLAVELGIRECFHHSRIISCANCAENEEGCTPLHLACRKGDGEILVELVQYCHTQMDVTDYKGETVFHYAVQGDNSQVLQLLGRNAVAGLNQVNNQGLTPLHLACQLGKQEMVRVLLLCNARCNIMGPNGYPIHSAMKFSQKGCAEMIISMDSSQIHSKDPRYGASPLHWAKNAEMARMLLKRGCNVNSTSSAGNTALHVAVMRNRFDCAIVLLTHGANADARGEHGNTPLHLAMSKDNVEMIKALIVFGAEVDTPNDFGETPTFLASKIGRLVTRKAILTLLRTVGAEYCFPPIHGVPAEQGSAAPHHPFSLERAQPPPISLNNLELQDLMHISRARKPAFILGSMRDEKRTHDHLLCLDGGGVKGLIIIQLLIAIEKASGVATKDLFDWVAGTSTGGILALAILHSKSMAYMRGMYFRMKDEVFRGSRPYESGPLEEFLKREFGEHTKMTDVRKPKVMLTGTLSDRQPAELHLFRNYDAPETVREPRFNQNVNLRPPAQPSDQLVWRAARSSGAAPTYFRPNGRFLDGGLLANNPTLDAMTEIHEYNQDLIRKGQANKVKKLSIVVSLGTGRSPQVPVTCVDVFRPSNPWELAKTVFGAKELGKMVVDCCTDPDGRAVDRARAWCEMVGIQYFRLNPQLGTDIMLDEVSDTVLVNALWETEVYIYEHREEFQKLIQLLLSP", "settings": "reference inhibitors; data taken from ref 15; cited from earlier work"}, "[2]": {"biological_target": "T2, GIVA cPLA2 (Homo sapiens, UniProt P47712)", "T2 sequence (P47712 1-749)": "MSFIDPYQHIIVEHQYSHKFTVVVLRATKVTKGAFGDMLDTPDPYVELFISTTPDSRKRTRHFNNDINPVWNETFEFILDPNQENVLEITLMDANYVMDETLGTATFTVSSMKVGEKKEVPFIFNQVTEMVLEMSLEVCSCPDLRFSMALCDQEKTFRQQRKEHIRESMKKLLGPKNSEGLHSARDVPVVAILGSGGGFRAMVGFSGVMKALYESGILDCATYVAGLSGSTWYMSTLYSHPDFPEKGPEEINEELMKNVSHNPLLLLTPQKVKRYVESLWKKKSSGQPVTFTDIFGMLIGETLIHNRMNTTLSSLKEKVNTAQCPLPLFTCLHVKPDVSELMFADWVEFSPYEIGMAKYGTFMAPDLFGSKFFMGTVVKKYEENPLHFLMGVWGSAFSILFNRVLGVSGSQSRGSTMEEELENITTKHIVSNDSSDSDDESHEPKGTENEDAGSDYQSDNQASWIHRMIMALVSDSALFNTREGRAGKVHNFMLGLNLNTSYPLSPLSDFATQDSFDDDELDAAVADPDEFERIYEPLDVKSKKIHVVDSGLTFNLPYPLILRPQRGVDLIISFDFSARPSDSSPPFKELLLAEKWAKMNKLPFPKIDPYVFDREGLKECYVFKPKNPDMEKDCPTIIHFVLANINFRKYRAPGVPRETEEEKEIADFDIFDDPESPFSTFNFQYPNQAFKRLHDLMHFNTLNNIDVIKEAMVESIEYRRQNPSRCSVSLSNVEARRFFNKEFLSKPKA", "settings": "reference inhibitors; data taken from ref 15; cited from earlier work"}}, "note": "Marks after values point to notes of the source that are not given here.", "data": [{"smiles": "CCCCCCCCCCCCCCC(=O)C(=O)NCCCC(=O)OCC", "note": "[AX048, reference compound]", "values": [{"measurement": "GVIA iPLA2 X1(50)", "setting": "[1]", "value": "0.027 ± 0.009^b mole fraction"}, {"measurement": "GIVA cPLA2 X1(50)", "setting": "[2]", "value": "0.022 ± 0.009^b mole fraction"}]}]}
